What was measured:
[1] = test system: MLKL translocation in transfected THP-1 cells; assay: Flag-MLKL translocation to cell membrane, immunofluorescent staining, confocal microscopy; format: cell-based, human; details: transfected THP-1 cells stimulated with compound and TBZ, FIG. 3
Protocol: A human monocyte cell line THP-1 and a human colon cancer cell line HT-29 were maintained in a 10% FBS-Roswell Park Memorial Institute (RPMI) 1640 medium supplemented with 2 mM L-glutamine, 100 U/ml penicillin, and 100 μg/ml streptomycin at 37° C. under a 5% CO2 condition. The THP-1 cells were differentiated into macrophages in an RPMI 1640 medium containing 500 nM Phorbol 12-myristate 13-acetate (PMA) for 3 hours. Human mixed lineage kinase domain-like protein (MLKL)-flag plasmid (Sino Biological, HG12810-CF) transfection was performed using the electroporation system (Invitrogen) of MicroPorator-mini (Digital Bio).
Cells were seeded on cell culture-treated glass chamber slides. The cells were pretreated with Z-VAD, BV6, and the indicated compound for 1 hour, and then treated with TNF-α and BV6 overnight. Subsequently, the cells were washed with phosphate-buffered saline (PBS) and fixed in 4% paraformaldehyde for 10 minutes. Before incubation for 10 minutes in 0.25% Triton X-100 in PBS, the cells were washed three more times with PBS. The cells were blocked with 5% bovine serum albumin (BSA) in PBS for 30 minutes and stained using an anti-Flag (Sigma, F7425-2MG) antibody. The nuclei were stained with DAPI (Invitrogen, 00-4959-52). Images were captured using a confocal microscope (Olympus, FV1000). […]

DSS-induced colitis = DSS-induced colitis mouse model; format: in vivo, C57BL/6 mice
Protocol: An animal experiment was performed on 6 to 8-week-old male C57BL/6 mice in accordance with the procedures approved by the Animal Care and Use Committee of the Yonsei Laboratory Animal Research Center (YLARC, 2018-0024) at Yonsei University. The mice were housed in polypropylene cages with a maximum of four mice per cage under constant temperature and humidity, and the light/dark cycle was 12 hours/12 hours. All mice were given an acclimation period of at least 7 days before participation.
For colitis induced by dextran sulfate sodium (DSS, 36-50 kDa, MP Biomedicals), the mice were administered 2.5% DSS in drinking water for 7 days. The mice were randomly divided into 8 groups as follows. • 1) Control • 2) Apomorphine-treated group (=APO; STK088477, Vitas-M, 1.5 mg/kg, daily intraperitoneal injection) • 3) APO-treated group (15 mg/kg, daily intraperitoneal injection) 4) DSS-treated group • 5) DSS and necrostatine-1-treated group (NEC-1; Biovision, 1864-5, 1.5 mg/kg, daily intraperitoneal injection) • 6) DSS and APO-treated group (0.15 mg/kg, daily intraperitoneal injection) • 7) DSS and APO-treated group (1.5 mg/kg, daily intraperitoneal injection) • 8) DSS and APO-treated group (15 mg/kg, daily intraperitoneal injection)
The body weights and disease activity index (DAI) scores of the mice were recorded daily. DAI was calculated by adding scores of body weight loss (0 point=none, 1 point=1%-5% weight loss, 2 points=5%-10% weight loss, 3 points=10%-15% weight loss, 4 points=15% or more weight loss), stool consistency/diarrhea (0 point=normal, 2 points=loose stools, 4 points=watery diarrhea), and bleeding (0 point=no bleeding, 2 points=slight bleeding, 4 points=total bleeding). At the end of the experiment, the mice were sacrificed, the colon was removed, and then changes in colon length were confirmed, and a weight loss was measured.
At the end of the experiment, the mice were sacrificed, and the colon was removed (without the cecum). The removed colon was washed with cold phosphate-buffered saline (PBS; Welgene, LB001-02) before the measurement of its length. The measured colon was prepared for further analysis by cutting intestinal segments along the mesenteric line and washing with PBS. Then, the intestinal segments were placed in a petri dish and fixed with modified Bouin's fixative (50% ethanol/5% acetic acid in dH2O). The lumen side was maintained upward by holding the proximal end with forceps in one hand and a toothpick in the other. Then, the flat open end of the colon was pulled with the forceps and the proximal end was wrapped around the toothpick. The entire large intestine was wrapped, placed in a cassette, and immersed in 4% paraformaldehyde (Biosesang, PC2031-100-00) at 4° C. overnight.
After the experiment, colon tissues collected from the sacrificed mice were fixed in 4% paraformaldehyde overnight. Swiss-rolled and fixed colon specimens were embedded in paraffin. The specimens were cut into 5-μm sections, and then the sections were stained with hematoxylin and eosin (H & E). The histological evaluation of colitis lesions along the entire length was performed with reference to a scoring system of the degree of crypt structure damage (0˜3), the degree of inflammatory cell infiltration (0˜3), and submucosal edema (0˜3).
5-μm cut paraffin sections were blocked with 5% BSA-supplemented TBS-T, and then the sections and primary antibodies were co-incubated at 4° C. overnight. Secondary antibodies were added and incubated for 1 hour. […]

CN1CCc2cccc3c2[C@H]1Cc1ccc(O)c(O)c1-3 [APO, apomorphine]
distribution of Flag-MLKL signals [1]: mostly distributed in the cytoplasm
characteristic symptoms of colitis observed by H&E staining and PAS staining (DSS-induced colitis; DSS mice, APO 0.15, 1.5, and 15 mg/kg daily intraperitoneal injection, FIG. 7A): alleviated in a concentration-dependent manner
HI score (DSS-induced colitis; DSS mice, APO daily intraperitoneal injection, FIG. 7A): reduce
degree of colon shortening (DSS-induced colitis; DSS mice, APO daily intraperitoneal injection, FIG. 7B): reduce
DAI score (DSS-induced colitis; DSS mice, APO daily intraperitoneal injection, FIG. 7C): reduce
differences due to treatment with APO alone (without DSS) (DSS-induced colitis; mice without DSS, APO 1.5 or 15 mg/kg daily intraperitoneal injection): no differences

Source: US20250000855A1, “USE OF APOMORPHINE AS THERAPEUTIC AGENT FOR NECROPTOSIS-RELATED DISEASES” (INDUSTRY-ACADEMIC COOPERATION FOUNDATION, YONSEI UNIVERSITY, priority 2021, published 2025)
